Assay [1] concerns the target Ribonucleotide reductase (Herpes simplex virus type 2). Kind of assay: Compound was tested in vitro for inhibitory activity against Herpes Simplex Virus type 2 ribonucleotide reductase.
Assay [2] in a line: Inhibitory activity of YAGAVVNDL against Herpes Simplex Virus type 2 (HSV-2) ribonucleotide reductase determined as control. The arrangement: species or system Human alphaherpesvirus 2.
In assay [3] the test system is Human alphaherpesvirus 2. Kind of assay: Relative potency to that of YAGAVVNDL against Herpes Simplex Virus type 2 ribonucleotide reductase.

Non-standard residues stand in square brackets, D forms with d. Residues, ends and D or L forms follow the SMILES beside them. NBnTyr = O=C(O)[C@H](Cc1ccc(O)cc1)NCc1ccccc1

Regarding `CC(C)C[C@H](NC(=O)[C@H](CC(=O)O)NC(=O)[C@H](CC(N)=O)NC(=O)[C@@H](NC(=O)[C@@H](NC(=O)Cc1ccc2ccccc2c1)C(C)C)C(C)C)C(=O)O`, the results for the IC50 in assay [1] and in assay [2] were 5 µM and 30 µM, respectively. The Relative potency in assay [3] came to 6.

Take `CC(C)C[C@H](NC(=O)[C@H](CC(=O)O)NC(=O)[C@H](CC(N)=O)NC(=O)[C@@H](NC(=O)[C@@H](NC(=O)[C@H](Cc1ccc(O)cc1)NCc1ccccc1)C(C)C)C(C)C)C(=O)O` (H-[NBnTyr]VVNDL-OH): the half-maximal inhibitory concentration (IC50) in assay [1] is 6 µM; in assay [2], 30 µM. The Relative potency in assay [3] turned out to be 5.

On to `CC(C)C[C@H](NC(=O)[C@H](CC(=O)O)NC(=O)[C@H](CC(N)=O)NC(=O)[C@@H](NC(=O)[C@@H](NC(=O)C(Cc1ccccc1)Cc1ccc(O)cc1)C(C)C)C(C)C)C(=O)O` (stereo in doubt; form 1), for which the IC50 in assay [1] was 0.45 µM; in assay [2] it was 9.5 µM.

What is called IC50 is the concentration that gives 50% inhibition. A lower IC50 goes with inhibition by little substance.

Source of the values: ChEMBL document CHEMBL1126344, “Substituted penta- and hexapeptides as potent inhibitors of herpes simplex virus type 2 ribonucleotide reductase” (Bioorg Med Chem Lett, 1992).
